Measurements published in ChEMBL document CHEMBL1144966, “Both 5-arylidene-2-thioxodihydropyrimidine-4,6(1H,5H)-diones and 3-thioxo-2,3-dihydro-1H-imidazo[1,5-a]indol-1-ones are light-dependent tumor necrosis factor-alpha antagonists” (Bioorg Med Chem Lett, 2003).

Assays:
[1] = molecular target: T1, Tumor necrosis factor receptor superfamily member 1A (Homo sapiens, UniProt P19438); assay: Inhibition of TNF-alpha binding to TNFRc1
T1 sequence (P19438 whole entry): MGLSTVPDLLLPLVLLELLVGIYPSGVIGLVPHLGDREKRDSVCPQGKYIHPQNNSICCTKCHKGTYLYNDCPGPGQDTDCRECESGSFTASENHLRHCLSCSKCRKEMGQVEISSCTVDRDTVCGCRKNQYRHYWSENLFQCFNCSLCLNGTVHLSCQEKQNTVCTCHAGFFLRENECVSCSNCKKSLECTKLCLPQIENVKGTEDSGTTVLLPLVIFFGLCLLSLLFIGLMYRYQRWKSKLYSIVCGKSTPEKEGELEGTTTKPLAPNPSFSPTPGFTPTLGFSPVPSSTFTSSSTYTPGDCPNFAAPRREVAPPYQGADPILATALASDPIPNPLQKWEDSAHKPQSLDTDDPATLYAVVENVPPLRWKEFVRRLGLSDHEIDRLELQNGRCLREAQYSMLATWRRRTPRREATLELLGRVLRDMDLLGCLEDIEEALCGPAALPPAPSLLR

[2] = molecular target: T2, Tumor necrosis factor receptor superfamily member 1A (Homo sapiens) (UniProt P19438); assay: Compound was tested for inhibition of TNF-alpha binding to TNFRc1 at a concentration of 10 uM
T2 sequence (whole entry): T1 sequence (P19438 whole entry)

| Structure (SMILES) | IC50 [1] [nM] | inhibition [2] [%] |
| --- | --- | --- |
| CCN1C(=O)/C(=C/c2ccc(-c3ccsc3C(=O)OC)o2)SC1=S | 300 | – |
| C=CCN1C(=O)c2cc3c(OC)cc(OC)cc3n2C1=S | 280 | – |
| C=CCN1C(=O)c2cc3cc(OCc4ccccc4)ccc3n2C1=S | – | 46 |
| C=CCN1C(=O)c2cc3ccc(OC)cc3n2C1=S | 1700 | – |
| CCN1C(=O)/C(=C/c2c[nH]c3ccccc23)SC1=S | – | 40 |
| CCN1C(=O)C(=Cc2c[nH]c3ccc(OCc4ccccc4)cc23)C(=O)N(CC)C1=S | 400 | – |
| C=CCN1C(=O)n2c(c(C)c3c(OC)cc(OC)cc32)C1=S | 210 | – |
| Cc1ccccc1N1C(=O)/C(=C/c2c[nH]c3ccccc23)C(=O)NC1=S | 1800 | – |
| CCN1C(=O)C(=Cc2ccc(Br)s2)C(=O)N(CC)C1=S | 4500 | – |
| CCN1C(=O)C(=Cc2cn(C(C)=O)c3ccccc23)C(=O)N(CC)C1=S | – | 15 |
| COc1cc(OC)c2cc3n(c2c1)C(=S)N(CCCN1CCOCC1)C3=O | 670 | – |
| CN1C(=O)C(=Cc2c[nH]c3ccccc23)C(=O)N(C)C1=S | 13000 | – |
| CCN1C(=O)C(=Cc2cccnc2)C(=O)N(CC)C1=S | – | 0 |
| Cc1ccccc1N1C(=O)C(=Cc2c[nH]c3ccccc23)C(=O)N(c2ccccc2C)C1=S | 790 | – |
| CCN1C(=O)/C(=C/c2ccc(-c3ccccc3C(F)(F)F)o2)SC1=S | 320 | – |
| CCN1C(=O)C(=Cc2cn(C)c3ccccc23)C(=O)N(CC)C1=S | 130 | – |
| COC(=O)c1sccc1-c1ccc(C=C2C(=O)N(c3ccccc3)C(=S)N(c3ccccc3)C2=O)o1 | 40000 | – |
| CCN1C(=O)c2cc3c(OC)cc(OCOC)cc3n2C1=S | 280 | – |
| C=CCN1C(=O)c2c(C)c3c(OC)cc(OC)cc3n2C1=O | – | 0 |
| C=CCN1C(=O)c2cc3c(OC)cc(OC)cc3n2C1=O | – | 0 |
| C=CCN1C(=O)c2c(C)c3c(OC)cc(OC)cc3n2C1=S | 1100 | – |
| CCN1C(=O)C(=Cc2ccc(-c3cc(C(F)(F)F)nn3C)s2)C(=O)N(CC)C1=S | – | 33 |
| CCN1C(=O)c2cc3c(OC)cc(OCc4ccccn4)cc3n2C1=S | 310 | – |
| C=CCN1C(=O)c2c(C)c3c(OC)cc(OC)cc3n2/C1=N/C#N | – | 19 |
| CCN1C(=O)c2cc3c(OC)cc(OCC(=O)OC(C)(C)C)cc3n2C1=S | 390 | – |
| CCN1C(=O)C(=Cc2c[nH]c3ccccc23)C(=O)N(CC)C1=S | 1000 | – |
| CCN1C(=O)C(=Cc2ccc(-c3ccccc3C(F)(F)F)o2)C(=O)N(CC)C1=S | 2000 | – |

| Structure (SMILES) | IC50 [1] [nM] | inhibition [2] [%] |
| --- | --- | --- |
| CCN1C(=O)C(=Cc2cc([N+](=O)[O-])cs2)C(=O)N(CC)C1=S | – | 0 |
| CCN1C(=O)C(=Cc2ccc3ccccc3n2)C(=O)N(CC)C1=S | – | 0 |
| CCN1C(=O)/C(=C/c2ccc(-c3cc(C(F)(F)F)nn3C)s2)SC1=S | 140 | – |
| CCN1C(=O)C(=Cc2sccc2C)C(=O)N(CC)C1=S | 14100 | – |
| CCN1C(=O)C(=Cc2cc(Br)cs2)C(=O)N(CC)C1=S | – | 2 |
| O=C1C(=Cc2c[nH]c3ccccc23)C(=O)N(c2ccccc2)C(=S)N1c1ccccc1 | – | 9 |
| CCN1C(=O)C(=Cc2ccncc2)C(=O)N(CC)C1=S | – | 0 |
| C=CCN1C(=O)c2cc3c(OC)c(OC)c(OC)cc3n2C1=S | 780 | – |
| C=CCN1C(=S)c2c(C)c3c(OC)cc(OC)cc3n2C1=S | 210 | – |
| COc1cc(OC)c2c(C)c3n(c2c1)C(=O)CN(Cc1ccccc1)C3=O | – | 0 |
| CCN1C(=O)C2Cc3c(OC)cc(OC)cc3N2C1=S (centres undefined) | – | 0 |
| O=C1C(=Cc2ccc(-c3ccccc3C(F)(F)F)o2)C(=O)N(c2ccccc2)C(=S)N1c1ccccc1 | 11000 | – |
| C=CCN1C(=O)c2cc3cc(OC)c(OC)cc3n2C1=S | – | 53 |
| COc1cc(OC)c2cc3n(c2c1)C(=S)N(CCc1ccccc1)C3=O | 1900 | – |
| CCN1C(=O)C(=Cc2cc3ccccc3[nH]2)C(=O)N(CC)C1=S | 10200 | – |
| CCN1C(=O)C(=Cc2ccc(C)s2)C(=O)N(CC)C1=S | 3400 | – |
| CCN1C(=O)C(=Cc2cnc3ccccc3c2)C(=O)N(CC)C1=S | – | 0 |
| CCN1C(=O)c2cc3ccccc3n2C1=S | – | 27 |
| CCN1C(=O)C(=Cc2ccc(-c3ccsc3C(=O)OC)o2)C(=O)N(CC)C1=S | 2800 | – |
| CCN1C(=O)C(=Cc2c[nH]c3ccc([N+](=O)[O-])cc23)C(=O)N(CC)C1=S | 5500 | – |
| C=CCN1C(=O)c2cc3cc(Cl)ccc3n2C1=S | – | 17 |
| CCN1C(=O)C(=Cc2ccccn2)C(=O)N(CC)C1=S | – | 0 |
| CCN1C(=O)C(=Cc2c[nH]c3c(C)cccc23)C(=O)N(CC)C1=S | 600 | – |
| C=CCN1C(=O)n2c(cc3c(OC)cc(OC)cc32)C1=S | 610 | – |
| CCN1C(=O)c2cc3c(OC)cc(OCC(=O)O)cc3n2C1=S | – | 42 |
| CCN1C(=O)c2cc3c(OC)cc(OC)cc3n2C1=S | 1000 | – |
| C=CCN1C(=O)c2cc3c(OC)cccc3n2C1=S | 2100 | – |
